The values that follow come from patent publication US20160176859A1, “High-Throughput Assay for Identifying Small Molecules that Modulate AMP-activated Protein Kinase (AMPK)” (North Carolina Central University, priority 2013, published 2016).

Assay [1] concerns p-ACC levels in HEK cells. Kind of assay: Cell-intact assay, p-ACC levels in HEK cells. As to conditions: for p-ACC levels, serum-treated HEK cells: 10% serum; for p-ACC levels, serum-starved HEK cells: 1 hour treatment. Format: cell-based, human. As to the method: Cell-intact assays. HEK cells were grown in DMEM with 10% FBS and 1% penicillin/streptomycin at 37° C. A subset of plates was serum-starved for 5 hours on the day of the experiment. After 5 hours of serum-starvation, cells were treated with either controls (0.2% DMSO, A-769662, or Compound C) or small molecules in the absence of serum for an additional hour prior to lysis. Another subset of plates was serum-starved for 6 hours and then treated with either controls or small molecules for 1 hour in the presence of 10% FBS. A time course of both AMPK and ACC phosphorylation in HEK cells during serum starvation has already been published (Pirkmajer S, Chibalin A V. Serum starvation: caveat emptor. American journal of physiology Cell physiology. 2011 August; 301(2):C272-9. PubMed PMID: 2161361).
After incubating in the presence of drugs for one hour, cells were washed three times with ice-cold PBS and lysed according to published methods (Kazgan N, Williams T, Forsberg L J, Brenman J E. Identification of a nuclear export signal in the catalytic subunit of AMP-activated protein kinase. Molecular biology of the cell. 2010 Oct. 1; 21(19):3433-42. PubMed PMID: 20685962. Pubmed Central PMCID: 2947478). Lysates were centrifuged at 16,000 g (10 minutes, 4° C.). Clarified supernatant (30 μL) was then transferred to 10 μL 4X loading buffer and 2 μL 1 M DTT. Samples were immediately frozen at −20° C. The concentration of protein in diluted clarified supernatant was calculated using a DC protein assay kit (BioRad) prior to western analyses.
(§1) Western analyses. Protein samples were boiled for 15 minutes in loading buffer and DTT prior to SDS-PAGE. Blots for protein-based assays were sequentially incubated with the following: 5% BSA in 1× TBS (1 hr, 22° C.), 1:1000 rabbit anti-human p-AMPK-α antibody or p-ACC antibody (2 hr, 22° C.), and 1:10,000 donkey anti-rabbit secondary antibody (1 hr, 22° C.). Blots for phosphatase assays were probed a second time using 1:100 mouse anti-human total AMPK antibody (overnight, 4° C.; from UNC Antibody Core Facility) followed by 1:10,000 donkey anti-mouse secondary antibody (1 hr, 22° C.). Blots for clarified cell lysates were sequentially probed for p-AMPK (1:500 dilution, overnight at 4° C. or 4 hours at 22° C.), total ACC (1:1000 dilution, overnight at 4° C. or 4 hours at 22° C.), and tubulin (1:10,000 dilution, 1 hr, 22° C.); a parallel set of blots were probed for p-ACC (1:500 dilution, overnight at 4° C. or 4 hours at 22° C.), total AMPK (1:1000 dilution, overnight at 4° C. or 4 hours at 22° C.), and tubulin (1:10,000 dilution, 1 hr, 22° C.). Because phosphorylated and total protein were imaged on separate membranes, the signals were normalized to the internal tubulin signal prior to calculating the ratio of phosphorylated to total protein. Scanning and imaging were completed according to published methods.

The target of the next assay is T1, purified p-AMPK (Rattus norvegicus, UniProt P54645+P80385).
T1 construct: Full-length AMPK intended for use in phosphatase and kinase assays was purified, mixed with GST-CaMKKβ; made in house; host or cells: Rosetta cells (E. coli); phosphorylated in vitro with GST-CaMKKβ, which was then removed on glutathione resin
T1 sequence (P54645 with tags, fused parts or gaps limits assumed): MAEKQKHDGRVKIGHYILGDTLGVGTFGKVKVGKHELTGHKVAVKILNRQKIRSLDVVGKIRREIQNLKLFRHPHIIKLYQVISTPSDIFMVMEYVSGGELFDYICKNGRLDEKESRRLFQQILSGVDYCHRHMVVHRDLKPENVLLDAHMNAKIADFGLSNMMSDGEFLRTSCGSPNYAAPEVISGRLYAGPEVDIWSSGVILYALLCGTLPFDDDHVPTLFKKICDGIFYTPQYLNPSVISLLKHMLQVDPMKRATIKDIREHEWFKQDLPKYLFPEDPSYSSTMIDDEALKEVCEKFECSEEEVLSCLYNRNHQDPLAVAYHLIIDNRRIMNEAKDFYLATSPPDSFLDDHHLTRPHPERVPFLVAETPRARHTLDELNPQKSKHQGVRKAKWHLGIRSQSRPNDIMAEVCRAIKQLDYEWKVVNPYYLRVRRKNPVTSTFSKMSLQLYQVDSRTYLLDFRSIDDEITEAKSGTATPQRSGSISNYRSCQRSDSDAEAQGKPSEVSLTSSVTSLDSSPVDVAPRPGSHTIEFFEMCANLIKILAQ
T1 sequence (P80386 whole entry partner): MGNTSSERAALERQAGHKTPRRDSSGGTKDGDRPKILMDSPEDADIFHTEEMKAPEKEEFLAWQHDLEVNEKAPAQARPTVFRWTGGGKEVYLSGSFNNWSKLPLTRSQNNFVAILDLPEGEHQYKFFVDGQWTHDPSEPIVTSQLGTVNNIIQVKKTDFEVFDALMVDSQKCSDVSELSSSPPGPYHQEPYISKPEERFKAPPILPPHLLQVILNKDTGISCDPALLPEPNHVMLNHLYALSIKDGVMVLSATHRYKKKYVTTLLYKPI
T1 sequence (P80385 whole entry): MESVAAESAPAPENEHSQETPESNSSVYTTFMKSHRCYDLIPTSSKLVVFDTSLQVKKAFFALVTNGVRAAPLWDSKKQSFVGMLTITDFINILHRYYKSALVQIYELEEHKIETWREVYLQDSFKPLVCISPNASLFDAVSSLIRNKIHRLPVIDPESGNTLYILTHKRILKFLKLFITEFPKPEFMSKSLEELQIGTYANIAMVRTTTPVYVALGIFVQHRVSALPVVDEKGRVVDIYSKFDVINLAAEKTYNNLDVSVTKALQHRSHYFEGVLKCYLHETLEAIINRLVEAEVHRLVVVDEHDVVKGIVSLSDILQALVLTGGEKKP
The assay is described as follows: Kinase assay with purified p-AMPK and GST-ACC peptide. In kind it is biochemical. As to conditions: compared to DMSO control. As to the method: Kinase assays. Assay conditions were adapted from published methods (17). The final assay buffer was comprised of 40 mM Hepes (pH 7.4) 5 mM MgCl2, 200 μM ATP, 75 mM NaCl, 0.01% Triton X-100, 1 mM DTT, and 0.45% DMSO (vehicle). Because some analogs had poor solubility at high concentrations, all analogs and controls were diluted in assay buffer and centrifuged (1 min, 5000 rpm, 4° C.) to remove insoluble matter. GST-ACC peptide and p-AMPK were thawed, diluted in assay buffer, and then added to the supernatant at final concentrations of 900 and 0.1 ng/μL, respectively. Kinase assays were assembled on ice; reactions were allowed to proceed for 30 minutes at room temperature. Reactions were stopped by the addition of loading buffer and 48 mM DTT followed promptly by freezing at −20° C.
as §1

Assay [2] addresses T2, AMPK regulatory fragment (rat His-α1, 396-548; human β2, 187-272; rat γ1) (Rattus norvegicus, UniProt P80385).
T2 construct: rat His-α1, 396-548; human β2, 187-272; rat γ1; made in house; host or cells: Rosetta cells (E. coli), tricistronic vector, gift of Dr. Steve Gamblin
The assay is described as follows: MANT-ADP fluorescence displacement (binding) assay, AMPK regulatory fragment. The following applies: inhibition of MANT-ADP fluorescence; for IC50: read-out: IC50 (data in parentheses). As for the experimental part:
(§2) Except where otherwise noted, assays were performed with the following conditions: 0.5 μM full-length AMPK (130 kDa) or 0.5 μM regulatory fragment (66.7 kDa), 0.1 μM MANT-ADP, 10 mM Tris-HCl (pH 8), 0.45% DMSO (vehicle and negative control), and 5 μM ADP (positive control). Automated assays were assembled in two steps. First, a NanoQuot (BioTek) was used to dispense 11 μL of master mix (protein, MANT-ADP, and Tris-HCl) per well in black, low volume 384-well plates (Corning-3676). Next, a Biomek NX workstation (Beckman-Coulter, Brea, Calif.) equipped with pintools (VP Scientific, San Diego Calif.) was used to transfer 50 nL of controls (columns 1, 2, 23, and 24) and small molecules (4.5 μM final). Controls and library molecules were transferred from Axygen 384-well rigid PCR plates (Cat no. 321-67-051) at 221× concentration for single-concentration screening. Plates were shaken for 10 minutes prior to reading.
(§3) Fluorescence emission spectra of MANT-ADP were collected using a PerkinElmer EnSpire plate reader with an excitation wavelength of 360 nm. Background fluorescence from protein was subtracted from the raw data prior to plotting MANT-ADP's fluorescence in the presence of protein. Fluorescence detection for assay development and screening was performed on either a BMG Pherastar Plus (360/10 excitation and 460/10 emission filters) or a PerkinElmer EnVision (355/40 excitation and 460/25 emission filters), depending on equipment availability. Relative fluorescence units (RFUs) were recorded at room temperature.
(§4) ScreenAble (ScreenAble Solutions, Chapel Hill, N.C.) high-throughput screening software was utilized for merging screening data and chemical structure, for statistical design of experiments, and hit selection. GraphPad Prism was used for non-linear regression analysis of dose response data.
(§5) Binding assays. Except where otherwise noted, assay assembly and data analysis were completed according to published methods. Binding assays were manually assembled, with the exception of the similarity screen. Automated assembly of the similarity screen was completed according to published methods. Analogs were cherry-picked from a 10 mM Asinex small molecule library and a 0.5 mM kinase focused library, which has been described previously (4). Molecules were screened at a final concentration of 45 and 2.3 μM, respectively.

The target in assay [3] is T3, full-length AMPK (rat His-α1, β1, γ1) (Rattus norvegicus, UniProt P54645+P80385).
T3 construct: Tricistronic vectors encoding full-length AMPK (rat His-α1, β1, γ1); made in house; host or cells: Rosetta cells (E. coli), tricistronic vector, gift of Dr. Uwe Schlattner
T3 sequence (P54645 with tags, fused parts or gaps limits assumed): as the sequence (P54645 with tags, fused parts or gaps limits assumed) above
T3 sequence (P80386 whole entry partner): as the sequence (P80386 whole entry partner) above
T3 sequence (P80385 whole entry): as the sequence (P80385 whole entry) above
The assay is described as follows: MANT-ADP fluorescence displacement (binding) assay, full-length AMPK. The following applies: for thiol-reactivity: binding curves in the presence and absence of DTT: 0-1 mM DTT. As to the method: as §2, §3, §4, §5

In assay [4] the test system is phospho-AMPKα in HEK cells. The assay is described as follows: Western blot of treated HEK cells for phospho-AMPKα (Example 3). In kind it is cell-based, human. The following applies: for AMPK modulatory activity / phospho-AMPKα (Western blot, FIG. 7): HEK cells; for phospho-AMPKα (Western blot, FIG. 7): standardized to tubulin; for phospho-AMPK (FIG. 8): human Hek293 cells. As for the experimental part:
Approximately 50 compounds will be tested from those identified above using the methods and assays described herein on HEK cells in culture in 6 well plate format for their ability to enter cells and modulate AMPK, initially at 1 μM, 2 μM, 10 μM and 20 μM compound in 0.1% DMSO. […] Molecular biology of the cell 23, 381-389, doi:10.1091/mbc.E11-08-0699 (2012)). Examples of this approach with compounds identified from our preliminary screening that have AMPK modulatory activity are shown in FIG. 7. […] See also FIG. 8. […] By testing under multiple conditions, the likelihood of identifying agonists and antagonists of AMPK activity in vivo, and particularly those that are not dependent on a particular means of altering AMPK activity may increase.
The phosphorylation status of AMPKα with a phospho-specific antibody (against the activation/T-loop threonine 172) (Cell Signaling) will be quantified. […] Molecular biology of the cell 21, 3433-3442, doi:10.1091/mbc.E10-04-0347 (2010)) (FIG. 7). […] In addition, phospho-ACC (Cell Signaling) will be measured by western blot. Cytoplasmic acetyl coenzyme A carboxylase (ACC) is the best known AMPK direct downstream target, and is a rate-limiting enzyme in the energy consuming process of fatty acid synthesis (Davies, S. P. et al. Purification of the AMP-activated protein kinase on ATP-gamma-sepharose and analysis of its subunit structure. European journal of biochemistry/FEBS 223, 351-357 (1994); Carling, D., Zammit, V. A. & Hardie, D. G. A common bicyclic protein kinase cascade inactivates the regulatory enzymes of fatty acid and cholesterol biosynthesis. FEBS Lett 223, 217-222 (1987)). Phospho-ACC will be standardized to both tubulin and total (non-phospho) ACC to ensure we are not measuring changes in total ACC levels. Compounds that modulate phospho-AMPKα and phospho-ACC status in the same direction (both increase or both decrease) will be prioritized over compounds that produce different affects on AMPKα versus ACC phosphorylation for in vitro kinase or phosphatase protection assays.
In general terms: A western blot detects proteins with antibodies after separation by electrophoresis.

The mark [5] stands for this setting: full-length AMPK, inhibition of MANT-ADP fluorescence.
Where [6] appears, read: full-length AMPK, inhibition of MANT-ADP fluorescence, read-out: IC50.

As a reminder, the IC50 is the point on the concentration scale where inhibition reaches its midpoint. What is called Hill slope is the slope factor of the fitted curve.

Molecules are shown by their SMILES. “Also recorded” adds a separate entry of the source. Read-outs that look alike come from different tables or passages of the source.

T2 sequence (P54645 407-559 partner limits assumed): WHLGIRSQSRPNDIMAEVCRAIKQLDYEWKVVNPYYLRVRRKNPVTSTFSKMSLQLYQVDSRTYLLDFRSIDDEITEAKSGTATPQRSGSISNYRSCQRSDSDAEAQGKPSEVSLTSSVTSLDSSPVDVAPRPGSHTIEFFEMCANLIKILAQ
T2 sequence (O43741 187-272 partner limits assumed): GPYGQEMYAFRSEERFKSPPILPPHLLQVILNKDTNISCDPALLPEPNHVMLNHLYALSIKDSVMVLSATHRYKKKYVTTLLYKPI
T2 sequence (P80385 whole entry, the tested form may be a part): as the sequence (P80385 whole entry) above

With `O=C1/C(=C/c2ccc(-c3ccc(F)cc3)o2)SC(=S)N1CCS(=O)(=O)O` [STK823366, 2-[(5Z)-5-{[5-(4-fluorophenyl)furan-2-yl]methylidene}-4-oxo-2-sulfanylidene-1,3-thiazolidin-3-yl]ethane-1-sulfonic acid], in assay [1], the “p-ACC levels, serum-treated HEK cells” value is “decreased phosphorylation; also recorded: decreases” and the “p-ACC levels, serum-starved HEK cells” value is reported as “decreased phosphorylation”. Also, the “activity of purified p-AMPK (phosphorylation of GST-ACC peptide), dose response” value at purified p-AMPK is reported as “dose-dependently inhibited”.
With `COc1cc(C(=O)/C=C/c2cc(O)c(O)c(Cl)c2)cc(OC)c1OC` [Example Z64358107], in assay [2], the “Hill slope (data in parentheses)” value was 2.6 and the IC50 turned out to be 200 nM. The compound also registered a Hill slope in assay [3] (setting [5]) of 1.1. Besides, the IC50 in assay [3] (setting [6]) was 300 nM.
With `COC(=O)CN1C(=O)/C(=C/c2ccc(OC)cc2)SC1=S` [BAS 00502779], the “inhibition of the protein-bound signal of MANT-ADP in the triplicate similarity screen” value in assay [3] (final concentration 45 μM) is “reproducibly inhibited”.
Consider `Cc1ccc(-c2ccc(/C=C3\SC(=S)N(CC(=O)O)C3=O)o2)cc1` [STK740822, 2-{(5Z)-5-{[5-(4-Methylphenyl)furan-2-yl]methylidene}-4-oxo-2-sulfanylidene-1,3-thiazolidin-3-yl}acetic acid], for which, in assay [4], the AMPK modulatory activity result is on record as “activating activity”; the “phospho-AMPKα (Western blot, FIG. 7)” value was “increased”; the “phospho-AMPK (FIG. 8)” value is listed as “increase”. Further, in assay [2], the “Hill slope (data in parentheses)” value was 1.4 (1.4) and the IC50 turned out to be 1600 nM. Besides, the “thiol-reactivity: binding curves in the presence and absence of DTT” value in assay [3] was “not thiol-reactive”. Further, the “Hill slope” value in assay [3] (full-length AMPK, Example 4) is reported as 1.2. For the same compound, the IC50 in assay [3] (full-length AMPK, Example 4, read-out: binding IC50) turned out to be 9000 nM. Further, the Hill slope in assay [3] (setting [5]) is given as 1.4 (1.4). Also, the IC50 in assay [3] (setting [6]) was 2900 nM.
For the compound `O=C1Nc2ccc(Br)cc2/C1=C1/SC(=S)N(C(Cc2ccccc2)C(=O)O)C1=O` (stereo not drawn) [STL035166], in assay [4], the AMPK modulatory activity entry is reported as “inhibitory activity”; the “phospho-AMPKα (Western blot, FIG. 7)” value is “decreased”; the “phospho-AMPK (FIG. 8)” value is on record as “increase”. Besides, in assay [2], the “Hill slope (data in parentheses)” value was 1.4 and the IC50 is 1500 nM. In addition, the “thiol-reactivity: binding curves in the presence and absence of DTT” value in assay [3] is listed as “dramatically different dose response curve”. In addition, the IC50 in assay [3] (1 mM DTT, read-out: extrapolated IC50 in the presence of DTT) is approximately 250000 nM. Moreover, the Hill slope in assay [3] (setting [5]) is listed as 1.3. The IC50 in assay [3] (setting [6]) was determined as 2700 nM.
Take `c1cc(-c2cnn3cc(-c4ccc(OCCN5CCCCC5)cc4)cnc23)ccn1` [Compound C, reference compound]: in assay [1], the “p-ACC levels, serum-treated HEK cells” value is on record as “modest decreases” and the “p-ACC levels, serum-starved HEK cells” value is “best inhibition”. Also, the “activity of purified p-AMPK (phosphorylation of GST-ACC peptide), dose response” value on purified p-AMPK is given as “inhibits substrate phosphorylation”.
